Data set [1] in a line: Liver microsomal stability, dog. It is filed as in vitro ADME. The following applies: male, Beagle, pooled liver microsomes, pH 7.4, 0.5 mg/mL protein, read-out: Liver Microsomal Stability (T1/2/mins) dog. Here is the method:
(§1) Microsomal Incubation: Experimental Procedure
(§2) Pooled human liver microsomes (pooled male and female), pooled rat liver microsomes (male Sprague Dawley rats) and pooled dog liver microsomes (male Beagle dog) are purchased from a reputable commercial supplier and stored at −80° C. prior to use.
(§3) Microsomes (final protein concentration 0.5 mg/mL), 0.1 M phosphate buffer pH 7.4 and test compound (final substrate concentration 3 μM; final DMSO concentration 0.25%) are pre-incubated at 37° C. prior to the addition of NADPH (final concentration 1 mM) to initiate the reaction. The final incubation volume is 50 μL. A control incubation is included for each compound tested where 0.1 M phosphate buffer pH 7.4 is added instead of NADPH (minus NADPH). Two control compounds are included with each species. All incubations are performed singularly for each test compound.
(§4) Compounds are incubated for 0, 5, 15, 30 and 45 min. The control (minus NADPH) is incubated for 45 min only. […] Following protein precipitation, the sample supernatants are combined in cassettes of up to 4 compounds, internal standard is added and samples analysed by LC-MS/MS. From a plot of ln peak area ratio (compound peak area/internal standard peak area) against time, the gradient of the line is determined. Subsequently, half-life and intrinsic clearance are calculated

Data set [2] can be described thus: Liver microsomal stability, human. It is filed as in vitro ADME. The following applies: both sexes, pooled liver microsomes, pH 7.4, 0.5 mg/mL protein, read-out: Liver Microsomal Stability (T1/2/mins) human. Here is the method:
as §1, §2, §3, §4

A further data set has as its target T1, RSV A2_F (Human respiratory syncytial virus A, UniProt P03420).
T1 construct: expressed in transfected cells; host or cells: HEK 293T/17
The data set is described as follows: RSV fusion assay (luciferase reporter, HEK 293T/17 cells transfected with A2_F). The format is cell-based. The following applies: Fusion activity IC50 μM, HEK 293T/17 cells, 24 hr. Here is the method: HEK 293T/17 cells were cultured in T75 culture flasks in Dulbecco's medium (DMEM) containing 10% FBS and 1× Penicillin-Streptomycin (Pen/Strep) and warmed to 37° C. prior to use. The cells were passaged by first washing briefly with 3 ml phosphate buffered saline (PBS) followed by a 4 min incubation with […] at 37° C. 7 ml media was then added to the flask and the cells dispersed via pipetting (×3) against the bottom of the flask. Two further T75 flasks were each seeded with 2×10^6 cells in 15 ml fresh media.
Cells were seeded on the T75 plates at the same density as on the 6-well plates the area of a T75 flask and one 1.75 cm radius well from a 6-well plate were compared. 7.79×2 ml of 3×10^5 cells ml^−1 was used to seed a single T75 flask.
HEK cells were removed from a T75 flask as described above. The cells were counted and diluted to 3×10^5 cells/ml in fresh media. Two T75 flasks were each seeded with 15.58 ml diluted cells.
The plasmid DNA (for pFR-Luc and pcDNA3.1_Gal4/NFκB) to be transfected into the HEK cells was first prepared in serum free media (DMEM+Pen/Strep) containing the transfection reagent Fugene 6 (Promega). Transfections were set up as follows (Luc=pFR_Luc, Gal4=pcDNA3.1+_Gal4/NFκB, A2_F=pcDNA3.1+_A2_F)
Serum free media was placed in a 1.5 ml eppendorf tube then the fugene 6 was added into the media. The tube was vortexed for 1 s before being incubated at RT for 5 min. The plasmid DNA was then added to the tube, vortexed for 1 s, then incubated at RT for 15 min
The transfection reagents were then added to the appropriate T75 flask by tipping the flask on end and adding the reagents directly to the media already in the flask. The flask was then tipped on its back so the media could be mixed thoroughly whilst not disturbing the cells before placing the flask the right way up and incubating overnight at 37° C. and 5% CO2.
Compounds were diluted (in a polypropylene round-bottomed 96 well plate) 1:3 in a twelve point dilution curve to give top [final] of either 3.3 μM, 1 μM, 500 nM 200 nM or 100 nM. The Control compound was always run at a concentration of 100 nM.
The cells were then counted and diluted to 4×10^5 cells/ml in fresh media. 50 μl of transfection population 1 cells were added to all wells of the assay plates. 100 μl diluted compound (2 rows per compound), standard curve (one row) and controls (100 nM RV (100% inhibition, four wells), DMSO (0% inhibition, eight wells)) were added to the appropriate wells. 50 μl of the diluted (4×10^5 cells/ml) transfection population 2 cells when then added to all wells.
The plates were then incubated for 24 hr at 37° C. and 5% CO2
Buffers were prepared for the luciferase assay (20 mM tricine, 10 mM MgSO4, 1 mM EDTA, 10 mM DTT) and lysis (25 mM tris-phosphate, 8 mM MgCl2, 1 mM DTT, 1% Triton X-100, 15% glycerol) and stored at −20° C.
Luminescence was measured as described:
Media was discarded into Virkon and the plates washed with 100 ul PBS per well. 20 ul/well of lysis buffer was added to each well and incubated shaking for 5 min at RT. Luciferin was added to LAAB at a dilution of 1:50 to give a working luciferin buffer. 100 μl working luciferin buffer was added to each well and luminescence was measured immediately. […]
In general terms: A reporter such as luciferase makes a cellular process visible.

Some results are limits rather than exact numbers.

T1 sequence (P03420 137-574): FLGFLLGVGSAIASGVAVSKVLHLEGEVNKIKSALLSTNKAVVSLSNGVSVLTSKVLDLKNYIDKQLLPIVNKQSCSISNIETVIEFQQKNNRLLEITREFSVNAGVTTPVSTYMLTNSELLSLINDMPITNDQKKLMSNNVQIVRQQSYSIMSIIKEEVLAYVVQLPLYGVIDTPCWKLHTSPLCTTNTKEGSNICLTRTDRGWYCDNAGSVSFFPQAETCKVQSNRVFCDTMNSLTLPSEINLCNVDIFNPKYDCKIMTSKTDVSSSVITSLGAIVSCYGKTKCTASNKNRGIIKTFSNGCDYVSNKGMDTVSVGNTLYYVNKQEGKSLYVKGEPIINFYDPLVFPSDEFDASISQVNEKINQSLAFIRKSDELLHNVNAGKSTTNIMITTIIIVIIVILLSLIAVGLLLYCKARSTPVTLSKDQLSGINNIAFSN
T1 sequence (P03420 26-109): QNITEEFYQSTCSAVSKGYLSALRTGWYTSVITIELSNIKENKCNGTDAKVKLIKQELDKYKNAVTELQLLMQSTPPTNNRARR

In the case of `NC1CCN(c2ncc(CN3C(=O)C4(CC4)c4ccc(F)cc43)c(N[C@H]3CC[C@H](O)CC3)n2)C1` (stereo partly drawn) [Compound 2, 1′-((2-(3-Aminopyrrolidin-1-yl)-4-(((1r,4r)-4-hydroxycyclohexyl)amino)pyrimidin-5-yl)methyl)-6′-fluorospiro[cyclopropane-1,3′-indolin]-2′-one], the results for the half-life at 3 μM in data set [1] and in data set [2] were > 4 h and 2.82 h, respectively. In addition, at RSV A2_F, the half-inhibitory concentration (IC50) (in general, the point on the concentration scale where inhibition reaches its midpoint) was 0.237 µM.

The values above are taken from patent US10603319B2, “Pyrimidine derivatives and their use in treating or preventing a respiratory syncytial virus infection” (REVIRAL LIMITED, priority 2016, dated 2020).
